PubChem BioAssay AID330 (DTP/NCI, 2004)
Several values for one entry are separate records, joined by “and”; a condition that tells them apart may be missing. Equal entries are not always repeated. Toxic doses and inconclusive results are not listed.

Test system: P388 leukemia ip, CD2F1 mice, survival T/C
Assay: NCI In Vivo Anticancer Drug Screen. Data for tumor model P388 Leukemia (intraperitoneal) in CD2F1 (CDF1) mice
Conditions: endpoint: median survival time, higher = longer survival
Summary of the method: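 Mice carrying the transplanted tumor received test compound or vehicle. Survival was recorded in each group, and the value is the treated-group measurement divided by that of the vehicle-treated control group.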

[1] = dose: 50.0 mg/kg/injection, schedule: Q01DX005 (ip), vehicle: saline with Tween-80
[2] = dose: 100.0 mg/kg/injection, schedule: Q01DX005 (ip), vehicle: saline with Tween-80
[3] = dose: 200.0 mg/kg/injection, schedule: Q01DX005 (ip), vehicle: saline with Tween-80
[4] = dose: 60.0 mg/kg/injection, schedule: Q01DX005 (ip), vehicle: saline with Tween-80
[5] = dose: 120.0 mg/kg/injection, schedule: Q01DX005 (ip), vehicle: saline with Tween-80
[6] = dose: 240.0 mg/kg/injection, schedule: Q01DX005 (ip), vehicle: saline with Tween-80
[7] = dose: 12.5 mg/kg/injection, schedule: Q01DX009 (ip), vehicle: Klucel (hydroxypropylcellulose) (HPC)
[8] = dose: 25.0 mg/kg/injection, schedule: Q01DX009 (ip), vehicle: saline with Tween-80
[9] = dose: 50.0 mg/kg/injection, schedule: Q01DX009 (ip), vehicle: saline with Tween-80
[10] = dose: 100.0 mg/kg/injection, schedule: Q01DX009 (ip), vehicle: saline with Tween-80
[11] = dose: 50.0 mg/kg/injection, schedule: Q01DX009 (ip), vehicle: saline
[12] = dose: 100.0 mg/kg/injection, schedule: Q01DX009 (ip), vehicle: saline
[13] = dose: 200.0 mg/kg/injection, schedule: Q01DX009 (ip), vehicle: saline

COc1c(O)c2c(c3cc(C(=O)N4CCc5c4c(O)c(OC)c4[nH]c(C(=O)N6CC7CC78C6=CC(=O)c6[nH]cc(C)c68)cc54)[nH]c13)CCN2C(N)=O (configuration not stated)
T/C (dose: 0.01 mg/kg/injection, schedule: Q04DX003 (ip), vehicle: other): 190 % of control
T/C (dose: 0.03 mg/kg/injection, schedule: Q04DX003 (ip), vehicle: other): 190 % of control and 211 % of control
T/C (dose: 0.04 mg/kg/injection, schedule: Q04DX003 (ip), vehicle: DMSO): 150 % of control
T/C (dose: 0.1 mg/kg/injection, schedule: Q04DX003 (ip), vehicle: DMSO): 166 % of control
T/C (dose: 0.1 mg/kg/injection, schedule: Q04DX003 (ip), vehicle: other): 118 % of control and 98 % of control
T/C (dose: 2.6 micrograms/kg/injection, schedule: Q01DX009 (ip), vehicle: other): 120 % of control
T/C (dose: 4.0 micrograms/kg/injection, schedule: Q01DX009 (ip), vehicle: other): 119 % of control
T/C (dose: 10.0 micrograms/kg/injection, schedule: Q04DX003 (ip), vehicle: other): 163 % of control
T/C (dose: 13.0 micrograms/kg/injection, schedule: Q01DX009 (ip), vehicle: DMSO): 94 % of control
T/C (dose: 13.0 micrograms/kg/injection, schedule: Q04DX003 (ip), vehicle: other): 124 % of control
T/C (dose: 20.0 micrograms/kg/injection, schedule: Q04DX003 (ip), vehicle: other): 120 % of control
T/C (dose: 21.6 micrograms/kg/injection, schedule: Q01DX009 (ip), vehicle: DMSO): 95 % of control
T/C (dose: 30.0 micrograms/kg/injection, schedule: Q04DX003 (ip), vehicle: other): 181 % of control
T/C (dose: 36.0 micrograms/kg/injection, schedule: Q01DX009 (ip), vehicle: DMSO): 98 % of control
T/C (dose: 60.0 micrograms/kg/injection, schedule: Q01DX009 (ip), vehicle: DMSO): 93 % of control
T/C (dose: 64.8 micrograms/kg/injection, schedule: Q04DX003 (ip), vehicle: DMSO): 153 % of control
T/C (dose: 64.8 micrograms/kg/injection, schedule: Q04DX003 (ip), vehicle: saline): 156 % of control
T/C (dose: 88.5 micrograms/kg/injection, schedule: Q01DX001 (ip), vehicle: other): 153 % of control
T/C (dose: 100.0 micrograms/kg/injection, schedule: Q01DX009 (ip), vehicle: DMSO): 95 % of control
T/C (dose: 100.0 micrograms/kg/injection, schedule: Q04DX003 (ip), vehicle: other): 93 % of control
T/C (dose: 108.0 micrograms/kg/injection, schedule: Q04DX003 (ip), vehicle: DMSO): 161 % of control
T/C (dose: 133.0 micrograms/kg/injection, schedule: Q01DX001 (ip), vehicle: other): 155 % of control
T/C (dose: 180.0 micrograms/kg/injection, schedule: Q04DX003 (ip), vehicle: DMSO): 170 % of control
T/C (dose: 200.0 micrograms/kg/injection, schedule: Q01DX001 (ip), vehicle: other): 162 % of control
T/C (dose: 300.0 micrograms/kg/injection, schedule: Q04DX003 (ip), vehicle: saline): 105 % of control
T/C (dose: 450.0 micrograms/kg/injection, schedule: Q01DX001 (ip), vehicle: other): 157 % of control

C/C([O-])=c1\c(C)nn2ccc[n+]12
T/C (dose: 25.0 mg/kg/injection, schedule: Q01DX005 (ip), vehicle: saline with Tween-80): 100 % of control
T/C [1]: 108 % of control
T/C [2]: 96 % of control
T/C [3]: 99 % of control

CSc1nc(N)c(NS(=O)(=O)c2ccc(NC(C)=O)cc2)c(=O)[nH]1
T/C [4]: 93 % of control
T/C [5]: 91 % of control
T/C [6]: 96 % of control

ClCCN(CCCl)c1ccc(CCCCN2CCCCC2)cc1
T/C (dose: 6.25 mg/kg/injection, schedule: Q01DX009 (ip), vehicle: Klucel (hydroxypropylcellulose) (HPC)): 153 % of control
T/C [7]: 183 % of control

CSc1cc(C)c(O)c(C)c1
T/C (dose: 100.0 mg/kg/injection, schedule: Q04DX003 (ip), vehicle: other): 109 % of control
T/C (dose: 200.0 mg/kg/injection, schedule: Q04DX003 (ip), vehicle: other): 100 % of control
T/C (dose: 400.0 mg/kg/injection, schedule: Q04DX003 (ip), vehicle: other): 100 % of control

C1CCC(N2OC23CCCCC3)CC1 (configuration not stated)
T/C [8]: 113 % of control
T/C [9]: 117 % of control
T/C [10]: 123 % of control
T/C (dose: 200.0 mg/kg/injection, schedule: Q01DX009 (ip), vehicle: saline with Tween-80): 113 % of control

C=C1SC(=Nc2cccc(OC)c2)N(c2nc(Cl)nc(Cl)n2)C12CCCCC2
T/C [11]: 100 % of control
T/C [12]: 101 % of control
T/C [13]: 100 % of control

COC(=O)c1cc(NC(=O)NNC(=O)c2ccncc2)cc(C(=O)OC)c1
T/C [7]: 100 % of control
T/C (dose: 25.0 mg/kg/injection, schedule: Q01DX009 (ip), vehicle: Klucel (hydroxypropylcellulose) (HPC)): 98 % of control
T/C (dose: 50.0 mg/kg/injection, schedule: Q01DX009 (ip), vehicle: Klucel (hydroxypropylcellulose) (HPC)): 116 % of control and 98 % of control
T/C (dose: 100.0 mg/kg/injection, schedule: Q01DX009 (ip), vehicle: Klucel (hydroxypropylcellulose) (HPC)): 90 % of control

c1ccc(C(Nc2nncs2)Nc2nncs2)cc1
T/C (dose: 30.0 mg/kg/injection, schedule: Q01DX005 (ip), vehicle: saline with Tween-80): 99 % of control
T/C [4]: 100 % of control and 112 % of control
T/C [5]: 117 % of control
T/C [6]: 157 % of control and 164 % of control

O=CC(=O)Cc1ccccc1
T/C [11]: 99 % of control and 98 % of control
T/C [12]: 105 % of control and 98 % of control
T/C [13]: 100 % of control and 92 % of control
T/C (dose: 400.0 mg/kg/injection, schedule: Q01DX009 (ip), vehicle: saline): 99 % of control and 100 % of control

CCCCCN(CCCCC)CC(=O)O[C@H]1C[C@H]2CC[C@@]1(C)C2(C)C
T/C [1]: 103 % of control
T/C [2]: 105 % of control
T/C [3]: 107 % of control

Nc1ccc(N=Nc2ccncc2)c2ccccc12
T/C [1]: 100 % of control
T/C [2]: 100 % of control

OC1CC2CCCCC2CC1(O)c1ccc(OCc2ccccc2)c(OCc2ccccc2)c1 (configuration not stated)
T/C (dose: 25.0 mg/kg/injection, schedule: Q01DX001 (ip), vehicle: saline with Tween-80): 92 % of control
T/C (dose: 50.0 mg/kg/injection, schedule: Q01DX001 (ip), vehicle: saline with Tween-80): 88 % of control
T/C (dose: 100.0 mg/kg/injection, schedule: Q01DX001 (ip), vehicle: saline with Tween-80): 86 % of control

CCC(=O)Nc1cc(C(F)(F)F)cc2[nH]c(C)nc12
T/C [1]: 97 % of control
T/C [2]: 99 % of control
T/C [3]: 100 % of control

COc1ccc(S(=O)(=O)N/N=C\c2cc([N+](=O)[O-])cc([N+](=O)[O-])c2O)cc1OC
T/C [1]: 99 % of control
T/C [2]: 100 % of control
T/C [3]: 99 % of control

Nc1nc(N)c2cc(N3CCCC3c3ccc(Cl)cc3)ccc2n1 (configuration not stated)
T/C (dose: 1.56 mg/kg/injection, schedule: Q01DX005 (ip), vehicle: Klucel (hydroxypropylcellulose) (HPC)): 98 % of control
T/C (dose: 1.56 mg/kg/injection, schedule: Q01DX009 (ip), vehicle: Klucel (hydroxypropylcellulose) (HPC)): 100 % of control and 101 % of control
T/C (dose: 3.12 mg/kg/injection, schedule: Q01DX005 (ip), vehicle: Klucel (hydroxypropylcellulose) (HPC)): 98 % of control
T/C (dose: 3.12 mg/kg/injection, schedule: Q01DX009 (ip), vehicle: Klucel (hydroxypropylcellulose) (HPC)): 101 % of control and 118 % of control
T/C (dose: 6.25 mg/kg/injection, schedule: Q01DX005 (ip), vehicle: Klucel (hydroxypropylcellulose) (HPC)): 96 % of control
T/C (dose: 12.5 mg/kg/injection, schedule: Q01DX005 (ip), vehicle: Klucel (hydroxypropylcellulose) (HPC)): 108 % of control

CC1(C(Cl)(Cl)Cl)C=CC(=NO)C=C1 (configuration not stated)
T/C (dose: 50.0 mg/kg/injection, schedule: Q01DX005 (ip), vehicle: Klucel (hydroxypropylcellulose) (HPC)): 110 % of control
T/C (dose: 100.0 mg/kg/injection, schedule: Q01DX005 (ip), vehicle: Klucel (hydroxypropylcellulose) (HPC)): 107 % of control
T/C (dose: 200.0 mg/kg/injection, schedule: Q01DX005 (ip), vehicle: Klucel (hydroxypropylcellulose) (HPC)): 110 % of control

CCCCCCOCCN1CCN(CCCN2c3ccccc3Sc3ccc(C(F)(F)F)cc32)CC1
T/C (dose: 3.12 mg/kg/injection, schedule: Q01DX009 (ip), vehicle: saline with Tween-80): 100 % of control

Cc1cc(N(CCOS(C)(=O)=O)CCOS(C)(=O)=O)ccc1C=Nc1ccc(-c2csc(-c3ccc(Br)cc3)n2)cc1
T/C [8]: 180 % of control
T/C [9]: 209 % of control
T/C [10]: 98 % of control and 90 % of control

CCCCCCCCCCCCCCCCCC(=O)[Se][Se]C(=O)CCCCCCCCCCCCCCCCC
T/C (dose: 50.0 mg/kg/injection, schedule: Q01DX009 (ip), vehicle: saline + Tween-80 + alcohol): 99 % of control
T/C (dose: 100.0 mg/kg/injection, schedule: Q01DX009 (ip), vehicle: saline + Tween-80 + alcohol): 104 % of control
T/C (dose: 200.0 mg/kg/injection, schedule: Q01DX009 (ip), vehicle: saline + Tween-80 + alcohol): 104 % of control
